Experimental data published in ChEMBL document CHEMBL3431459, “Roche carnitine palmitoyltransferase modulator screening data (supplementary data associated with the publication CHEMBL2216752)”.
Converted amounts (≈) assume the structure as drawn.

Assays:
[1] = SUPPLEMENTARY: Lyophilisation Solubility Assay (LYSA); format: physicochemical; settings: read-out: Kinetic_solubility
[2] = molecular target: T1, Carnitine O-palmitoyltransferase 1, liver isoform (Homo sapiens, UniProt P50416); experiment: (§1) SUPPLEMENTARY: Inhibition of Carnitine palmitoyltransferase 1, liver isoform
T1 sequence (P50416 whole entry): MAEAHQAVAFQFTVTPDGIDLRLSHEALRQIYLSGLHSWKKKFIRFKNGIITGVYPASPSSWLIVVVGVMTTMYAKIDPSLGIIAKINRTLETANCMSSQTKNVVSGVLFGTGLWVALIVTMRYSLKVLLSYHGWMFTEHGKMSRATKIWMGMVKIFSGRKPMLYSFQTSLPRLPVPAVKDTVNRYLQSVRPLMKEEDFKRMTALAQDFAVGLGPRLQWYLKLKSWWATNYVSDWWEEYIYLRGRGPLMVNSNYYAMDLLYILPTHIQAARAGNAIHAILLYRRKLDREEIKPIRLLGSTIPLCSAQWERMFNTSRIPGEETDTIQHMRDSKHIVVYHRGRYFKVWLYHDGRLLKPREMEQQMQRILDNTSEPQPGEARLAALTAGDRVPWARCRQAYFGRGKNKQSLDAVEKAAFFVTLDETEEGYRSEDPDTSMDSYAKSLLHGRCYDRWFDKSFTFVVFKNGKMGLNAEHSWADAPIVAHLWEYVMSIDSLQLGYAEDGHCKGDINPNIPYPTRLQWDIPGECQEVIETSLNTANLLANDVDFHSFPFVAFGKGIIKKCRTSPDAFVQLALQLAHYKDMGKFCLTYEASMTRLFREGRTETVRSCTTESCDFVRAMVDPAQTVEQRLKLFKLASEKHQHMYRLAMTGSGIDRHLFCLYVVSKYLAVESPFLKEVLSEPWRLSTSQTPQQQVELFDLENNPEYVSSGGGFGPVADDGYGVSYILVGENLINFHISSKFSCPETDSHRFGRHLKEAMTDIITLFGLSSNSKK

[3] = SUPPLEMENTARY: Lipophilicity (log D) Determination by high-throughput shake-flask; format: physicochemical; settings: octanol/water
[4] = molecular target: T2, Carnitine O-palmitoyltransferase 2, mitochondrial (Rattus norvegicus, UniProt P18886); experiment: (§2) SUPPLEMENTARY: Inhibition of Carnitine palmitoyltransferase 2
T2 sequence (P18886 whole entry): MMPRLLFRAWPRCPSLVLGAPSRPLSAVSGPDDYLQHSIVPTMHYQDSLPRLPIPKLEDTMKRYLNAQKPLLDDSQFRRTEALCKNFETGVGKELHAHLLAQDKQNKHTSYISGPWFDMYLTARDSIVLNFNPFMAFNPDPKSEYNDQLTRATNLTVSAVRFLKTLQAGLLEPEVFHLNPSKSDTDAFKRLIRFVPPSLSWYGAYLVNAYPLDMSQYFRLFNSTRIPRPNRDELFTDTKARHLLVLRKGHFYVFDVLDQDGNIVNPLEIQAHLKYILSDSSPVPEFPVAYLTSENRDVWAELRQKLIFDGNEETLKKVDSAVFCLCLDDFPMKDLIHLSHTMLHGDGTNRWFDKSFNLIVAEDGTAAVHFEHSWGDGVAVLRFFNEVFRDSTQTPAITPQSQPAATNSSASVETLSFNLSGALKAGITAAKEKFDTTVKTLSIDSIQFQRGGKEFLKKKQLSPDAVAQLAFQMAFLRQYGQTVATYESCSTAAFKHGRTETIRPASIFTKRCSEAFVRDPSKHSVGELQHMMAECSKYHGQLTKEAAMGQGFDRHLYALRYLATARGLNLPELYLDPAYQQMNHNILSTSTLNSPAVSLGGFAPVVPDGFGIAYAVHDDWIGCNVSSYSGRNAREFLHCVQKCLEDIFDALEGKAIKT

[5] = molecular target: T3, Carnitine O-palmitoyltransferase 2, mitochondrial (Homo sapiens, UniProt P23786); experiment: as §2
T3 sequence (P23786 whole entry): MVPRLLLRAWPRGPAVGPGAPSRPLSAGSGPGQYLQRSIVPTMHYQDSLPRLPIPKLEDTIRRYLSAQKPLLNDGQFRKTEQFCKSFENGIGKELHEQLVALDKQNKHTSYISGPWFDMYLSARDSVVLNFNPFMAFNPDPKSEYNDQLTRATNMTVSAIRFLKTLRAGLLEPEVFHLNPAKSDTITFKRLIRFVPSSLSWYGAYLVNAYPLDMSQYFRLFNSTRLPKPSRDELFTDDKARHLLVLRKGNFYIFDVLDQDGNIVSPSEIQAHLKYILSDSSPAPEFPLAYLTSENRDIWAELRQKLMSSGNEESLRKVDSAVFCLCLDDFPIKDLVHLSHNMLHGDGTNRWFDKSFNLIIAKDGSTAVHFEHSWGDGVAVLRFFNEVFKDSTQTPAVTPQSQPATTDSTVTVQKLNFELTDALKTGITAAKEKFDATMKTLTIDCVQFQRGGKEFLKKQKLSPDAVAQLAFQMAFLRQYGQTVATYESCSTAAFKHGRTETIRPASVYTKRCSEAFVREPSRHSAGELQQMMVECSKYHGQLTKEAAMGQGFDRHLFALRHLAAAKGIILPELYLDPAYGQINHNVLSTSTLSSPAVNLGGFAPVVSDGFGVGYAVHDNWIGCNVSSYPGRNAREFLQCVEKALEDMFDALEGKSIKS

[6] = molecular target: T4, Carnitine O-palmitoyltransferase 1, muscle isoform (Homo sapiens, UniProt Q92523); experiment: SUPPLEMENTARY: Inhibition of Carnitine palmitoyltransferase 1, muscle isoform; set-up: species or system Muscle tissue
T4 sequence (Q92523 whole entry): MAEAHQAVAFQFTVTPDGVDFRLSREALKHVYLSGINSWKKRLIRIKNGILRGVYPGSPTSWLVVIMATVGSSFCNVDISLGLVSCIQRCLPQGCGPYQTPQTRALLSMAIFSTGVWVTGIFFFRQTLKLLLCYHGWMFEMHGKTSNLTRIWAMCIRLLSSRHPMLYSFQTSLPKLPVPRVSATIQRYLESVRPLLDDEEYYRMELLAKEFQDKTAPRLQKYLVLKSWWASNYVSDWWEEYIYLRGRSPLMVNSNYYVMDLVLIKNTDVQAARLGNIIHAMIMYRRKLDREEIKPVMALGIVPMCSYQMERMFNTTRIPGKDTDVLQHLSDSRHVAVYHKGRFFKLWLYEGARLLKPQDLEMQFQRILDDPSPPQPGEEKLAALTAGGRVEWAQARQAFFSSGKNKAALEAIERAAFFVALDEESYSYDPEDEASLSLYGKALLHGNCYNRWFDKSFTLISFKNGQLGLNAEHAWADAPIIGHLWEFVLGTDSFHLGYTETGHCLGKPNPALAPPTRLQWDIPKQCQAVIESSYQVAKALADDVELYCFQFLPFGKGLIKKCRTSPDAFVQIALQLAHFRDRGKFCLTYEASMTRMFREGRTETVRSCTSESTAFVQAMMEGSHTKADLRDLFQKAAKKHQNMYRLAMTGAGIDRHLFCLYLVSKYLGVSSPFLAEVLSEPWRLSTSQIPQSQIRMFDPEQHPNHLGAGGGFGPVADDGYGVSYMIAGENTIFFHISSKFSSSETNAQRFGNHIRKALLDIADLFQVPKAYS

[7] = SUPPLEMENTARY: PAMPA permeability assay; format: physicochemical; settings: read-out: Permeability
[8] = molecular target: T5, Carnitine O-palmitoyltransferase 1, liver isoform (Rattus norvegicus, UniProt P32198); experiment: as §1
T5 sequence (P32198 whole entry): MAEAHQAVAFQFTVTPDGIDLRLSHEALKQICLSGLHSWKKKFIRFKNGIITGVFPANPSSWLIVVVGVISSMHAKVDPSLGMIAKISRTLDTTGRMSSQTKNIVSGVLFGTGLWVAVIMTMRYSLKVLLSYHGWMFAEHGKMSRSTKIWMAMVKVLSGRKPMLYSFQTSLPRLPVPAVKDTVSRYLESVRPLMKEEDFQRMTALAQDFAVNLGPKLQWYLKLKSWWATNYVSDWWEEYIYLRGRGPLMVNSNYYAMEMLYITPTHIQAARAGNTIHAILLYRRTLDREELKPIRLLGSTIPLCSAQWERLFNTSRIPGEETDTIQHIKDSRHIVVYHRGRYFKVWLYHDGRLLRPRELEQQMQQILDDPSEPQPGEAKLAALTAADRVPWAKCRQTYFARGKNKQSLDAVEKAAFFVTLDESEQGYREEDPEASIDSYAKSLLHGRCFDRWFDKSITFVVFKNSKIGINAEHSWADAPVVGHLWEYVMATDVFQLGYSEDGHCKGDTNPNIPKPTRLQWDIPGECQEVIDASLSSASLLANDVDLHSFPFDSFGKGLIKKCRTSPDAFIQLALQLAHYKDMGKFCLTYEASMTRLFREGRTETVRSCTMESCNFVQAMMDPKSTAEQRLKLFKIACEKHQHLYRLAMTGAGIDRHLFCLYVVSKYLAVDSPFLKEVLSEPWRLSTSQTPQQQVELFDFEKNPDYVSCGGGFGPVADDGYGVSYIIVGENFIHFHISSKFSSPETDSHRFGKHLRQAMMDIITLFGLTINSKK

SMILES | solubility kinetic [1] | IC50 [2] | logD [3] | IC50 [4] | IC50 [5] | IC50 [6] | Papp [7] | IC50 [8]
O=C1CCC(=O)N1c1cccc(-c2n[nH]c([C@H]3CCCCN3C(=O)COc3ccccc3)n2)c1 | 172 µg/mL (≈ 373 µM) | 127 nM | 1.51 | 63500 nM | 21400 nM | > 100000 nM | 3.3 ×10⁻⁶ cm/s | 
COc1ccc2[nH]cc(C(=O)COc3ccncc3)c2c1 | 88 µg/mL (≈ 312 µM) | 658 nM | 0.42 | > 100000 nM | > 100000 nM | > 100000 nM | 0.02 ×10⁻⁶ cm/s | 
O=C(COc1ccccc1)N1CCCC[C@@H]1c1nc(-c2cccc(-c3n[nH]c(=O)o3)c2)n[nH]1 | 24 µg/mL (≈ 53.8 µM) | 115 nM | 2.42 |  | 34000 nM | > 100000 nM | 1.7 ×10⁻⁶ cm/s | 367 nM
O=C(COc1ccccc1)N1CCCC[C@@H]1c1nc(-c2cccc(-c3nnco3)c2)n[nH]1 | 26 µg/mL (≈ 60.4 µM) | 80 nM | 2.66 |  | 86100 nM | 748 nM | 3.05 ×10⁻⁶ cm/s | 388 nM
COc1ccc(-c2noc(C3C[S+]([O-])CCN3C(=O)COc3ccccc3)n2)cc1 (centres undefined) | 132 µg/mL (≈ 309 µM) | 164 nM | 2.19 |  | > 100000 nM | > 100000 nM | 3.4 ×10⁻⁶ cm/s | 244 nM
O=C(COc1ccccc1)N1CCCC[C@@H]1c1nc(-c2cccc(B(O)O)c2)no1 | 11 µg/mL (≈ 27 µM) | 67.2 nM | 2.16 |  | 15600 nM | 30600 nM | 4.15 ×10⁻⁶ cm/s | 205 nM
O=C(O)c1ccc(NC(=O)c2ccc3c(c2)N(S(=O)(=O)c2cccc(Cl)c2)CCO3)cc1 | 2 µg/mL (≈ 4.23 µM) | 66.4 nM | 2.92 |  | 94700 nM | > 100000 nM | 3.01 ×10⁻⁶ cm/s | 89.8 nM
COc1ccc(Cl)cc1S(=O)(=O)N1CCCCc2ccc(C(=O)Nc3ccc(C(=O)O)c(Cl)c3)cc21 | 36 µg/mL (≈ 65.5 µM) | 370 nM | 0.66 |  | 12000 nM | 3010 nM | 2.54 ×10⁻⁶ cm/s | 188 nM
CNC(=O)c1cncc(-c2noc([C@H]3CCCCN3C(=O)COc3ccccc3)n2)c1 | 362 µg/mL (≈ 859 µM) | 203 nM | 2.09 |  | 88500 nM | > 100000 nM | 3.8 ×10⁻⁶ cm/s | 422 nM
CCN(CC)C(=O)c1cncc(-c2noc([C@H]3CCCCN3C(=O)COc3ccccc3)n2)c1 | 431 µg/mL (≈ 930 µM) | 217 nM | 2.5 |  | 9180 nM | > 100000 nM | 5.44 ×10⁻⁶ cm/s | 354 nM
COCCN(C)C(=O)c1cncc(-c2noc([C@H]3CCCCN3C(=O)COc3ccccc3)n2)c1 | > 559 µg/mL | 165 nM | 1.83 |  | 7350 nM | > 100000 nM | 4.13 ×10⁻⁶ cm/s | 469 nM
O=C(O)COc1cccc(-c2noc([C@H]3CCCCN3C(=O)COc3ccccc3)n2)c1 | > 547 µg/mL | 196 nM | -0.64 |  | 19800 nM | 45900 nM | 0.37 ×10⁻⁶ cm/s | 594 nM
